Assay results from patent US20250129334A1, “LINEAGE SPECIFICATION DURING STEM CELL TRANSITION” (Amniotics AB, priority 2021, published 2025).
Entries after “also recorded” stand apart in the source; their conditions may differ. Read-outs that look alike come from different tables or passages of the source.

Assays:
[1] = test system: HE cells; test: HE subculture with metabolic regulators, flow cytometry of hematopoietic output; type: cell-based, human
Excerpt: The RB9-CB1 human iPSC line (Woods, N.-B. et al. Brief report: efficient generation of hematopoietic precursors and progenitors from human pluripotent stem cell lines. Stem Cells 29, 1158-1164 (2011)) was co-cultured with mouse embryonic fibroblasts (MEFs, Millipore), passaged every six days and processed to form embryoid bodies (EBs) as described previously (Guibentif, C. et al. Single-Cell Analysis Identifies Distinct Stages of Human Endothelial to-Hematopoietic Transition. Cell Reports 19, 10-19 (2017)). The differentiation protocol used in this study was previously described (Ditadi, A. & Sturgeon, C. M. Directed differentiation of definitive hemogenic endothelium and hematopoietic progenitors from human pluripotent stem cells. Methods 101, 65-72 (2016)), however, small modifications were made to induce both primitive and definitive hematopoiesis, as indicated below and in FIG. 6, a. Newly-formed EBs were first kept in SFD medium supplemented with 1 ng/ml Activin A (on days 0-2) and 3 μM CHIR99021 (on day 2 only). At day 3, media was switched to “Day 3-SP34” medium supplemented with 1 ng/ml Activin A (on day 3 only) and 3 μM CHIR99021 (on day 3 only) until day 6. On day 6, media was replaced by “Day 6-SP34” medium, until day 8. In some experiments where indicated, to obtain a higher yield of HSC-like cells, EBs were kept until day 10: in this case, EBs were plated onto Matrigel (8 μg/cm2, Corning)-coated dishes on day 8 and kept until day 10. Media was changed every day, except on days 5 and 7. On day 8 or 10 (as indicated), EBs were singularized with 5-6 rounds of 5-minute incubations with TryPLE Express (Thermo Fisher Scientific). CD34^+ cells were selected using the human CD34 MicroBead kit (Miltenyi Biotec) and stained with CD34-FITC, CD73-PE, VECad-PerCPCy5.5, CD38-PC7, CD184-APC, CD45-AF700, CD43-APCH7, GPA-eF450, CD90-BV605 and the viability marker 7AAD in order to sort HE (CD34^+CD43^−CXCR4^−CD73^−CD90^+VECad^+), EHT (CD34^+CD43^intCXCR4^−CD73^−CD90^+VECad^+) and HSC-like (CD34^+CD43^+CD90^+CD38^−) cells, according to previously described markers (Guibentif, C. et al. Single-Cell Analysis Identifies Distinct Stages of Human Endothelial to-Hematopoietic Transition. Cell Reports 19, 10-19 (2017); Ditadi, A. et al. Human definitive haemogenic endothelium and arterial vascular endothelium represent distinct lineages. Nat Cell Biol 17, 580-591 (2015); and Choi, K.-D. et al. Identification of the Hemogenic Endothelial Progenitor and Its Direct Precursor in Human Pluripotent Stem Cell Differentiation Cultures. Cell Reports 2, 553-567 (2012)).
Sorted HE (40,000), EHT (30,000) and HSC-like (5-20,000) cells were plated onto Matrigel (16 μg/cm2, Corning)-coated 96-well flat bottom plates in HE medium with 1% penicillin-streptomycin and kept in a humidified incubator at 37° C., 5% C02, 4% 02 overnight. The following day (day 0), wells were washed twice with PBS and fresh HE medium was added, together with 2-DG (1 mM), UK5099 (10 μM), DCA (3 mM or 10 mM), TSA (60 nM), TCP (300 nM), ACSS2i (5 μM), C646 (10 μM), CP-640186 (5 μM) or Atorvastatin (0.5 μM), where indicated. Media was changed and drugs were added every 2 days and cells were kept in a humidified incubator at 37° C., 5% CO2, 20% O2 for 6-7 days. Pictures were taken using an Olympus IX70 microscope equipped with a CellSens DP72 camera and CellSens Standard 1.6 software (Olympus). For single cell subcultures, single HE cells were directly sorted with a BD FACSAriaIII onto OP9-DL1 stroma in flat-bottom 96-well plates with 120 μl OP9 medium (OptiMEM medium with Glutamax (Invitrogen) with 10% FCS, 1% penicillin-streptomycin solution (Thermo Fisher Scientific) and 1% 2-mercaptoethanol (Invitrogen)) with SCF, IL-6, IL-11, IGF1 and EPO, and with or without 10 μM UK, or 3 mM or 10 mM DCA. The cells were kept in a humidified incubator at 37° C., 5% CO2, 4% O2 and media was replaced every 4 days. […]

[2] = test system: iPSC-CD34+; test: NK cell cytotoxic degranulation (CD107) with or without K562 co-culture; type: cell-based, human; settings: for degranulated NK cells (CD3-CD56+CD16+CD107+ cells) / increase in degranulated NK cells vs untreated control / basal degranulation: absence of K562; for degranulated NK cells (CD3-CD56+CD16+CD107+ cells) / increase in degranulated NK cells vs untreated control: DCA 10 mM, CP 2.5 μM, cholesterol 0.5x; for basal degranulation: vs ctrl; for level of degranulated NK cells when exposed to K562 cells: co-culture with K562
Excerpt: NK cell anti-tumour activity can occur via cytotoxic degranulation. CD107 is a marker that is present in the cytotoxic vesicles of NK cells, and so is not expressed on the cell surface of inactivated NK cells. However, upon NK cell activation and degranulation, the CD107 target becomes detectable on the cell surface. Therefore, the level of CD107 detected on NK cells correlates with cytotoxic degranulation. In this assay, several exemplary metabolic regulators were used to assess cytotoxic degranulation in a co-culture assay with K562 cells (an exemplary cancer cell model). As a negative control, iPSC-CD34^+ untreated with a metabolic regulator were used, in which a basal level of 3.27% of degranulated NK cells (CD3^−CD56^+CD16^+CD107^+ cells) were observed (FIG. 16A, top panel).

[3] = test system: HE, EHT and HSC-like cells; settings: 100 μM FCCP; all cell types
Experimental: On days 3 and 6 of subculture, cells were collected after a 2-minute incubation at 37° C. with StemPro Accutase Cell Dissociation Reagent and stained with CD34-FITC, CD14-PE, CD33-PC7, CD11b-APC, CD45-AF700, CD43-APCH7, GPA-eF450, CD90-BV605 and the viability marker 7AAD and fluorescence was measured on a BD LSRII. To measure mitochondrial activity, cells were incubated with Tetramethylrhodamine ethyl ester (TMRE, 20 nM) for 30 minutes at 37° C. Negative controls were incubated with 100 μM FCCP for 30 minutes at 37° C., prior to TMRE staining. […] III and MFI levels—MFI FMO were calculated. […] III. To measure proliferation, cells were processed with the CellTrace Violet (CTV) kit according to manufacturer's instructions (10-minute incubation) and fluorescence was measured on a BD LSRFortessa. To measure EdU incorporation, HE cells were assessed on day 1 or 2 of subculture after 24 h EdU pulses, using Click-iT EdU Flow Cytometry Cell Proliferation Assay (Thermo Fisher Scientific, C10424), according to manufacturer's instructions. Flow cytometry outputs were analyzed on FlowJo Software, with initial gatings on SSC-A/FSC-A, FSC-H/FSC-A, SSC-H/SSC-A and 7-AAD to exclude doublets and dead cells in all experiments.

[4] = test system: EHT cells; test: EHT cell subculture with metabolic regulators, flow cytometry; type: cell-based, human; settings: EHT cells; day 3; 2-DG 1 mM
Excerpt: The RB9-CB1 human iPSC line (Woods, N.-B. et al. Brief report: efficient generation of hematopoietic precursors and progenitors from human pluripotent stem cell lines. Stem Cells 29, 1158-1164 (2011)) was co-cultured with mouse embryonic fibroblasts (MEFs, Millipore), passaged every six days and processed to form embryoid bodies (EBs) as described previously (Guibentif, C. et al. Single-Cell Analysis Identifies Distinct Stages of Human Endothelial to-Hematopoietic Transition. Cell Reports 19, 10-19 (2017)). The differentiation protocol used in this study was previously described (Ditadi, A. & Sturgeon, C. M. Directed differentiation of definitive hemogenic endothelium and hematopoietic progenitors from human pluripotent stem cells. Methods 101, 65-72 (2016)), however, small modifications were made to induce both primitive and definitive hematopoiesis, as indicated below and in FIG. 6, a. Newly-formed EBs were first kept in SFD medium supplemented with 1 ng/ml Activin A (on days 0-2) and 3 μM CHIR99021 (on day 2 only). At day 3, media was switched to “Day 3-SP34” medium supplemented with 1 ng/ml Activin A (on day 3 only) and 3 μM CHIR99021 (on day 3 only) until day 6. On day 6, media was replaced by “Day 6-SP34” medium, until day 8. In some experiments where indicated, to obtain a higher yield of HSC-like cells, EBs were kept until day 10: in this case, EBs were plated onto Matrigel (8 μg/cm2, Corning)-coated dishes on day 8 and kept until day 10. Media was changed every day, except on days 5 and 7. On day 8 or 10 (as indicated), EBs were singularized with 5-6 rounds of 5-minute incubations with TryPLE Express (Thermo Fisher Scientific). […]

[5] = test system: HSC-like cells; test: HSC-like cell subculture with metabolic regulators, flow cytometry; type: cell-based, human; settings: day 3, 2-DG 1 mM
Excerpt: The RB9-CB1 human iPSC line (Woods, N.-B. et al. Brief report: efficient generation of hematopoietic precursors and progenitors from human pluripotent stem cell lines. Stem Cells 29, 1158-1164 (2011)) was co-cultured with mouse embryonic fibroblasts (MEFs, Millipore), passaged every six days and processed to form embryoid bodies (EBs) as described previously (Guibentif, C. et al. Single-Cell Analysis Identifies Distinct Stages of Human Endothelial to-Hematopoietic Transition. Cell Reports 19, 10-19 (2017)). The differentiation protocol used in this study was previously described (Ditadi, A. & Sturgeon, C. M. Directed differentiation of definitive hemogenic endothelium and hematopoietic progenitors from human pluripotent stem cells. Methods 101, 65-72 (2016)), however, small modifications were made to induce both primitive and definitive hematopoiesis, as indicated below and in FIG. 6, a. Newly-formed EBs were first kept in SFD medium supplemented with 1 ng/ml Activin A (on days 0-2) and 3 μM CHIR99021 (on day 2 only). At day 3, media was switched to “Day 3-SP34” medium supplemented with 1 ng/ml Activin A (on day 3 only) and 3 μM CHIR99021 (on day 3 only) until day 6. On day 6, media was replaced by “Day 6-SP34” medium, until day 8. […]

[6] = day 6, single agent vs control (1-AA 4 mM, TCP 300 nM, C646 10 μM, CP 5 μM, shRNAs vs shScr)

## CC(C)c1c(C(=O)Nc2ccccc2)c(-c2ccccc2)c(-c2ccc(F)cc2)n1CC[C@@H](O)C[C@@H](O)CC(=O)O [atorvastatin]
[1]; day 3, Ato 0.5 μM with DCA 3 mM
  DCA effect on CD43+CD45+ cells under co-treatment: abrogated the effect of DCA

## CC1=NN(c2ccc(C(=O)O)cc2)C(=O)/C1=C/C1=CC=C(c2cc(C)c(C)cc2[NH+]([O-])O)C1 (stereo not shown) [C646]
[1]; [6]
  HE-derived CD43+CD45+ (CD45+) cell population: did not have an effect

## CC(C)CCC[C@@H](C)[C@H]1CC[C@H]2[C@@H]3CC=C4C[C@@H](O)CC[C@]4(C)[C@H]3CC[C@]12C [cholesterol]
[2]
  degranulated NK cells (CD3-CD56+CD16+CD107+ cells): 7.47 % of the population
  increase in degranulated NK cells vs untreated control: more than 2 fold
  basal degranulation: higher than ctrl
  level of degranulated NK cells when exposed to K562 cells: further increased; also recorded: except for Cholesterol treated cells

## COCCNC(=O)Nc1ccc2nc(-c3cccs3)c(-c3cccs3)nc2c1 [ACSS2i]
[1]; day 6 of HE subculture, ACSS2i 5 μM with DCA 3 mM
  DCA effect on CD43+CD45+ cells under co-treatment: did not perturb the DCA effect

## O=C(c1c2ccccc2cc2ccccc12)N1CCC(N2CCCC(C(=O)N3CCOCC3)C2)CC1 (stereo not shown) [CP]
[1]; [6]
  HE-derived CD43+CD45+ (CD45+) cell population: had the same effect as DCA
[2]
  degranulated NK cells (CD3-CD56+CD16+CD107+ cells): 18.3 % of the population
  increase in degranulated NK cells vs untreated control: more than 5 fold
  basal degranulation: higher than ctrl
  level of degranulated NK cells when exposed to K562 cells: further increased; also recorded: increased degranulation

## N#CC(C#N)=NNc1ccc(OC(F)(F)F)cc1 [FCCP, Carbonyl cyanide 4-(trifluoromethoxy)phenylhydrazone]
[3]
  TMRE signal: abrogated the TMRE signal

## O=CC[C@@H](O)[C@H](O)[C@H](O)CO [2-DG, 2-Deoxy-D-glucose]
[4]
  proliferation rate (CellTrace Violet): significantly reduced
[1]; day 3, 2-DG 1 mM
  CD43+GPA+ cell population: less than 50 % of the control
[1]; day 3 of subculture, 2-DG 1 mM
  CD43+ cell output from HE cells: significantly reduced
[1]; day 6, 2-DG 1 mM
  CD43+CD45+ cell population: less than 50 % of the control
[5]
  proliferation rate (CellTrace Violet): significantly reduced

## CC(/C=C/C(=O)NO)=C\[C@@H](C)C(=O)c1ccc(N(C)C)cc1 [TSA, Trichostatin A]
[1]; day 3, TSA 60 nM
  emergence of CD43+ hematopoietic cells: impaired the emergence

## N[C@@H]1C[C@H]1c1ccccc1 (racemic) [TCP, Tranylcypromine]
[1]
  HE-derived CD43+CD45+ (CD45+) cell population: more
  increase in CD43+GPA+ cell frequency following UK5099 treatment when LSD1 is blocked or downregulated: could not detect an increase
  myeloid differentiation (CD43+CD45+CD33+CD11b+): specifically increased myeloid differentiation
